Source: patent US20240100083A1, “IMMUNOTHERAPY FOR CANCER” (THE PROVOST, FELLOWS, FOUNDATION SCHOLARS, AND THE OTHER …, priority 2020, published 2024)

System: B16 melanoma cells
Experiment: costimulatory/co-inhibitory molecule expression on B16 melanoma cells (flow cytometry)
Assay type: cell-based
Design: key to Upregulated (√)/No change (—) Costimulatory MHC CI / Upregulated (√)/No change (—) Costimulatory CD40 / Upregulated (√)/No change (—) Costimulatory CD80 / Upregulated (√)/No change (—) Costimulatory CD86 / Upregulated (√)/No change (—) Coinhibitory TIGIT / Upregulated (√)/No change (—) Coinhibitory PD-L1 / Upregulated (√)/No change (—) Coinhibitory PD-1: upregulated (√); no change (—)
Settings: 24 hours, C90, C100, protasan 40 μg/ml, CpG 4 μg/ml, Etoposide 200 μM, DMXAA 10 μg/ml; for Fold increase in MFI Coinhibitory PD-1 / Fold increase in MFI Coinhibitory PD-L1 / Fold increase in MFI Coinhibitory TIGIT / Fold increase in MFI Costimulatory CD40 / Fold increase in MFI Costimulatory CD80 / Fold increase in MFI Costimulatory CD86 / Fold increase in MFI Costimulatory MHC CI: compared to unstimulated control
Protocol: Flow cytometric analysis of costimulatory molecule expression on B16-F10 cells: 2×10^5 B16 melanoma cells were stimulated with media or 40 μg/ml, C90, C100 or protasan for 24 hours in 24 well plates. Cells were removed from wells using ice cold PBS-EDTA, transferred to labelled FACS tubes and washed with 2 mL of PBS. Cells were stained with BV510 viability dye (1 in 1000 dilition) for 15 minutes at room temperature. Cells were then washed in PBS, and stained for cell surface markers for 30 minutes at room temperature. Cells were then washed in PBS, resuspended in […] of FACs buffer, with samples acquired via BD FACSCanto and the data analysed using Flowjo™ software (Treestar, Oregon).

Structure (SMILES)	Upregulated (√)/No change (—) Coinhibitory PD-1	Upregulated (√)/No change (—) Coinhibitory PD-L1	Upregulated (√)/No change (—) Coinhibitory TIGIT	Upregulated (√)/No change (—) Costimulatory CD40	Upregulated (√)/No change (—) Costimulatory CD80	Upregulated (√)/No change (—) Costimulatory CD86	Upregulated (√)/No change (—) Costimulatory MHC CI	Fold increase in MFI Coinhibitory PD-1 [fold]	Fold increase in MFI Coinhibitory PD-L1 [fold]	Fold increase in MFI Coinhibitory TIGIT [fold]	Fold increase in MFI Costimulatory CD40 [fold]	Fold increase in MFI Costimulatory CD80 [fold]	Fold increase in MFI Costimulatory CD86 [fold]	Fold increase in MFI Costimulatory MHC CI [fold]
Cc1ccc2c(=O)c3cccc(CC(=O)O)c3oc2c1C [DMXAA]	√	√	√	—	—	—	√	1.2	1.2	1.3	1.1	1.0	1.1	1.2
COc1cc([C@@H]2c3cc4c(cc3[C@@H](O[C@@H]3O[C@@H]5CO[C@@H](C)O[C@H]5[C@H](O)[C@H]3O)[C@H]3COC(=O)[C@H]23)OCO4)cc(OC)c1O [Etoposide]	—	√	√ √	√ √	√ √	√ √	√ √ √	1.0	1.6	1.7	1.9	2.2	1.9	3.0
